Consider 17 molecules from patent US7351728B2, “Oxazolyl-aryloxyacetic acid derivatives and their use as PPAR agonists” (Eli Lilly and Company, priority 2003, dated 2008).

For the experiment, the target named is T1, huPPARα (Homo sapiens, UniProt Q07869).
T1 sequence (Q07869 1-468): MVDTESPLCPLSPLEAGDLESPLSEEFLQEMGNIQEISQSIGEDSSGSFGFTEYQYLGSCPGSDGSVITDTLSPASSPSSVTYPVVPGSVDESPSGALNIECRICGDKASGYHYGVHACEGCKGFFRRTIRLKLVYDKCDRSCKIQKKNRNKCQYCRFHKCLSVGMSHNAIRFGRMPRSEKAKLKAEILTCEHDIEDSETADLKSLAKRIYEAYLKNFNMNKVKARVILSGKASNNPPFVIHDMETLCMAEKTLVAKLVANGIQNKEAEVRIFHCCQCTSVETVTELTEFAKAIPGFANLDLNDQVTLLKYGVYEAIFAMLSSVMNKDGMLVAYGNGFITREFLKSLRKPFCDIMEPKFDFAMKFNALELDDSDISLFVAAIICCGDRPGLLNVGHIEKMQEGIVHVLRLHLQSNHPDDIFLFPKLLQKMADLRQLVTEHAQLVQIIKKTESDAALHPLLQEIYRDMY
T1 sequence (P19793 1-462 partner): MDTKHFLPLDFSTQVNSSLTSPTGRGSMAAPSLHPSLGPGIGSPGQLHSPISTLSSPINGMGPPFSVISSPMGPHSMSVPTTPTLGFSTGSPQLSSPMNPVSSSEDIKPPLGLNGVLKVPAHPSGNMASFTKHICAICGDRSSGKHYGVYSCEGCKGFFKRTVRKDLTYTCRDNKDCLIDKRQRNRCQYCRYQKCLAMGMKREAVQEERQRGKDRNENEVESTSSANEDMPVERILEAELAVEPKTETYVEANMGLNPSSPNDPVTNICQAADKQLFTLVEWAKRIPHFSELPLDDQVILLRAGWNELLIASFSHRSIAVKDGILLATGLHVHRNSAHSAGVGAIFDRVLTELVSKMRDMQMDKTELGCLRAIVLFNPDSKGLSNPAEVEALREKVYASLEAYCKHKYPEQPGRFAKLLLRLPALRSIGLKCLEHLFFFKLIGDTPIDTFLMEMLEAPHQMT
Description: DNA-dependent binding (ABCD binding), SPA, tritium-labeled PPARα agonist radioligand. To be noted: displacement of tritium-labeled PPARα agonist. As for the experimental part:
DNA-dependent binding (ABCD binding) was carried out using SPA technology with PPAR receptors. Tritium-labeled PPARα and PPARγ agonists were used as radioligands for generating displacement curves and IC50 values with compounds of the invention. Cotransfection assays were carried out in CV-1 cells. The reporter plasmid contained an acylCoA oxidase (AOX) PPRE and TK promoter upstream of the luciferase reporter cDNA. Appropriate PPARs and RXRα were constitutively expressed using plasmids containing the CMV promoter. […] In order to eliminate such interference, a GAL4 chimeric system was used in which the DNA binding domain of the transfected PPAR was replaced by that of GAL4, and the GAL4 response element was utilized in place of the AOX PPRE. Cotransfection efficacy was determined relative to PPARα agonist and PPARγ agonist reference molecules. Efficacies were determined by computer fit to a concentration-response curve, or in some cases at a single high concentration of agonist (10 μM). For binding or cotransfection studies with receptors other than PPARs, similar assays were carried out using appropriate ligands, receptors, reporter constructs, etc., for that particular receptor.
These studies were carried out to evaluate the ability of compounds of the invention to bind to and/or activate various nuclear transcription factors, particularly huPPARα (“hu” indicates “human”) and huPPARγ. These studies provide in vitro data concerning efficacy and selectivity of compounds of the invention. Furthermore, binding and cotransfection data for compounds of the invention were compared with corresponding data for marketed compounds that act on either huPPARα or huPPARγ.
Binding and cotransfection data for representative compounds of the invention are compared with corresponding data for reference compounds in Table II.

For `Cc1oc(-c2ccccc2)nc1CCOc1ccc(OC(C)(C)C(=O)O)c(CCc2ccccc2)c1` [Example 30J, 2-Methyl-2-{4-[2-(5-methyl-2-phenyloxazol-4-yl)ethoxy]-2-phenethylphenoxy}propionic acid], the IC50 (usually the concentration at which inhibition is half-maximal) was found to be 82 nM. The value for `Cc1cc(OCCc2nc(-c3ccccc3)oc2C)ccc1OC(C)(C)C(=O)O` [Example 24, 2-Methyl-2-{2-methyl-4-[2-(5-methyl-2-phenyloxazol-4-yl)ethoxy]phenoxy}propionic acid] was 624 nM; that for `Cc1oc(-c2ccccc2)nc1CCOc1ccc(OC(C)(C)C(=O)O)c2ccccc12` [Example 37, 2-Methyl-2-{4-[2-(5-methyl-2-phenyl-oxazol-4-yl)-ethoxy]-naphthalen-1-yloxy}-propionic acid] was 294 nM; that for `CCCc1cc(OCCc2nc(-c3ccccc3)oc2C)ccc1OC(C)(C)C(=O)O` [Example 26A, 2-Methyl-2-{4-[2-(5-methyl-2-phenyloxazol-4-yl)ethoxy]-2-propylphenoxy}propionic acid] was 79 nM. For the molecule `Cc1oc(-c2ccccc2)nc1CCOc1ccc(OC(C)(C)C(=O)O)c(CC(C)C)c1` [Example 30C, 2-{2-Isobutyl-4-[2-(5-methyl-2-phenyloxazol-4-yl)ethoxy]phenoxy}-2-methylpropionic acid], the IC50 worked out at 259 nM. `CCCCc1cc(OC(C)(C)C(=O)O)ccc1OCCc1nc(-c2ccccc2)oc1C` [Example 31F, 2-{3-Butyl-4-[2-(5-methyl-2-phenyloxazol-4-yl)ethoxy]phenoxy}-2-methylpropionic acid] had a 50% inhibitory concentration (IC50) of 30 nM. As for `CCCc1cc(OCCc2nc(-c3ccccc3)oc2C)ccc1OCC(=O)O` [Example 26, {4-[2-(5-methyl-2-phenyl-oxazol-4-yl)ethoxy]-2-propylphenoxy}acetic acid], the half-maximal inhibitory concentration (IC50) came to 3280 nM. Molecule `Cc1oc(-c2ccccc2)nc1CCOc1ccc(OC(C)(C)C(=O)O)cc1` [Example 1, 2-Methyl-2-{4-[2-(5-methyl-2-phenyloxazol-4-yl)ethoxy]phenoxy}propionic acid] yielded an IC50 of 1680 nM.

`Cc1oc(-c2ccccc2)nc1CCOc1ccc(OC(C)(C)C(=O)O)c2c1CCCC2` [Example 38, 2-Methyl-2-{4-[2-(5-methyl-2-phenyl-oxazol-4-yl)-ethoxy]-5,6,7,8-tetrahydro-naphthalen-1-yloxy}-propionic acid] gave an IC50 of 254 nM. `CCc1cc(OCCc2nc(-c3ccccc3)oc2C)ccc1OC(C)(C)C(=O)O` [Example 30A, 2-{2-Ethyl-4-[2-(5-methyl-2-phenyloxazol-4-yl)ethoxy]phenoxy}2-methylpropionic acid] came in with an IC50 of 189 nM. The value for `CCc1cccc(-c2nc(CCOc3ccc(OC(C)(C)C(=O)O)cc3)c(C)o2)c1` [Example 12, 2-(4-{2-[2-(3-Ethylphenyl)-5-methyloxazol-4-yl]ethoxy}phenoxy)-2-methylpropionic acid] was 31 nM. The result for `CCc1ccc(-c2nc(CCOc3ccc(OC(C)(C)C(=O)O)cc3)c(C)o2)cc1` [Example 13, 2-(4-{2-[2-(4-Ethylphenyl)-5-methyloxazol-4-yl]ethoxy}phenoxy)-2-methylpropionic acid] reads 25 nM. The value for `Cc1oc(-c2cccc(Br)c2)nc1CCOc1ccc(OC(C)(C)C(=O)O)cc1` [Example 9A, 2-(4-{2-[2-(3-Bromophenyl)-5-methyloxazol-4-yl]ethoxy}phenoxy)-2-methylpropionic acid] was 75 nM; that for `Cc1oc(-c2ccc(OC3CCCCC3)cc2)nc1CCOc1ccc(OC(C)(C)C(=O)O)cc1` [Example 21, 2-(4-{2-[2-(4-Cyclohexyloxy-phenyl)-5-methyl-oxazol-4-yl]-ethoxy}-phenoxy)-2-methyl-propionic acid] was 401 nM. On to `CCCc1cc(OC(C)(C)C(=O)O)ccc1OCCc1nc(-c2ccccc2)oc1C` [Example 27A, 2-Methyl-2-{4-[2-(5-methyl-2-phenyloxazol-4-yl)ethoxy]-3-propylphenoxy}propionic acid], for which the IC50 was found to be 113 nM. The value for `Cc1oc(-c2cccc(CCc3ccccc3)c2)nc1CCOc1ccc(OC(C)(C)C(=O)O)cc1` [Example 12A, 2-Methyl-2-(4-{2-[5-methyl-2-(3-phenethylphenyl)oxazol-4-yl]ethoxy}phenoxy)-propionic acid] was 233 nM.

The molecule `Cc1oc(-c2ccccc2)nc1CCOc1ccc(OC(C)(C)C(=O)O)c(Cc2ccccc2)c1` [Example 32, 2-{2-Benzyl-4-[2-(5-methyl-2-phenyloxazol-4-yl)ethoxy]phenoxy}-2-methylpropionic acid] showed an IC50 of 50 nM.
